Where two headings read alike, the source gives them in different places.
Tests used:
[1] = no concentration stated
[2] = cited from earlier work

Question: What does the source list for `COc1cc(Cc2cnc(N)nc2N)cc(OC)c1OC` [Trimethoprim]?
Answer: solubility in ethanol (qualitative) [1]: only slightly soluble; solubility in propylene glycol (qualitative) [1]: soluble; solubility in water (qualitative) [1]: almost completely insoluble; solubility ([2]; 95% Ethanol): 0.81 g/100 mL; solubility ([2]; Absolute Ethanol): 0.35 g/100 mL; solubility ([2]; Acetone): 0.35 g/100 mL; solubility ([2]; Benzene): 0.002 g/100 mL; solubility ([2]; Benzyl Alcohol): 7.29 g/100 mL; solubility ([2]; Carbon Tetra-Chloride): 0.002 g/100 mL; solubility ([2]; Choroform): 1.82 g/100 mL; solubility ([2]; Diethyl Ether): 0.00 g/100 mL; solubility ([2]; Dimethyl Acetamide): 13.86 g/100 mL; solubility ([2]; Methanol): 1.21 g/100 mL; solubility ([2]; Petroleum Ether): 0.02 g/100 mL; solubility ([2]; Propylene Glycol): 2.57 g/100 mL; solubility ([2]; Water): 0.04 g/100 mL
